Measurements: patent US20240217968A1, “PHARMACEUTICAL COMPOUND” (DUKE STREET BIO LIMITED, priority 2021, published 2024)

Target: T1, recombinant human Flag-tagged PARP7 (amino acids 456-657) (Homo sapiens, UniProt Q7Z3E1)
T1 construct: recombinant human Flag-tagged PARP7 (amino acids 456-657)
T1 sequence (Q7Z3E1 456-657): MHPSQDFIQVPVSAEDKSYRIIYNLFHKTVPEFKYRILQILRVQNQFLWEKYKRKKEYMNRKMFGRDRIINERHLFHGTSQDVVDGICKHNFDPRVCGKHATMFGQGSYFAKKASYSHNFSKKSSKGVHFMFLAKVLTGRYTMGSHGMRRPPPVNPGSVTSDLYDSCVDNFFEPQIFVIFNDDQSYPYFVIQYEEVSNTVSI
Assay: PARP7 biochemical DELFIA assay (auto-MARylation)
Settings: DELFIA readout, IC50 class
Summary of the method: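 Flag-PARP7 (456-657), 12.5-37.5 nM stock, captured on anti-FLAG wells, preincubated 30 min with compound, then auto-MARylated with biotin-NAD+ (15 μM stock) in HEPES pH 7.5/NaCl/DTT/BSA/Tween for 2-3 h at room temperature. NAD+ quench; Eu-streptavidin DELFIA read, Ex337/Em620 nm.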

IC50 [µM] | SMILES
≤ 0.1 | CC(COCCC(=O)N1CCN(c2ncc(OC(F)F)cn2)CC1)n1nc(C(F)(F)F)c2c(=O)[nH]ncc21 (single isomer, unassigned) [Compound 294]
≤ 0.1 | CC1CN(C(=O)CCOCCn2nc(C(F)(F)F)c3c(=O)[nH]ncc32)CCN1c1ncc(C(F)(F)F)cn1 (single isomer, unassigned) [Compound 187]
≤ 0.1 | CC(COCCC(=O)N1CCN(c2cnc(C#N)cn2)CC1)n1nc(C(F)(F)F)c2c(=O)[nH]ncc21 (stereo not drawn) [Compound 313]
≤ 0.1 | Cc1ccc(CCOCCC(=O)N2CCN(c3ncc(C(F)(F)F)cn3)CC2)c2cn[nH]c(=O)c12 [Compound 217]
≤ 0.1 | CC(COCCC(=O)N1CCN(c2ncc(C(F)F)cn2)CC1)n1nc(C(F)(F)F)c2c(=O)[nH]ncc21 (stereo not drawn) [Compound 264]
≤ 0.1 | CC(COCCC(=O)N1CCN(c2ncc(C#N)s2)CC1)n1nc(C(F)(F)F)c2c(=O)[nH]ncc21 (single isomer, unassigned) [Compound 284]
≤ 0.1 | N#Cc1ccc(N2CCN(C(=O)CCOCCc3cccc4c(=O)[nH]ncc34)CC2)nc1 [Compound 67]
≤ 0.1 | CC(COCCC(=O)N1CCN(c2ncc(C(F)(F)F)cn2)CC1)N1CCCc2c1cn[nH]c2=O (stereo not drawn) [Compound 63]
0.1 to 1 | CN(CCCC(=O)N1CCN(c2ncc(C(F)(F)F)cn2)CC1)Cc1cccc2c(=O)[nH]ncc12 [Compound 167]
≤ 0.1 | Cc1cc2c(=O)[nH]ncc2n1CCOCCC(=O)N1CCN(c2ncc(C(F)(F)F)cn2)CC1 [Compound 77]
≤ 0.1 | CC(COCCC(=O)N1CCN(c2ncc(C3COC3)cn2)CC1)n1nc(C(F)(F)F)c2c(=O)[nH]ncc21 (stereo not drawn) [Compound 288]
≤ 0.1 | O=C(CCOCCN1C(=O)CCc2c1cn[nH]c2=O)N1CCN(c2ncc(C(F)(F)F)cn2)CC1 [Compound 157]
≤ 0.1 | Cc1c(C(F)(F)F)c2c(=O)[nH]ncc2n1C(C)COCCC(=O)N1CCN(c2ncc(C(F)(F)F)cn2)CC1 (stereo not drawn) [Compound 475]
≤ 0.1 | O=C(CCOCCn1nc(C(F)(F)F)c2c(=O)[nH]ncc21)N1CCN(c2noc(C(F)(F)F)n2)CC1 [Compound 320]
≤ 0.1 | O=C(CCOCCc1cccc2c(=O)[nH]ncc12)N1CCN(c2ccc(C(F)(F)F)cn2)CC1 [Compound 98, 5-(2-(3-oxo-3-(4-(5-(trifluoromethyl)pyridin-2-yl)piperazin-1-yl)propoxy)ethyl)phthalazin-1(2H)-one]
≤ 0.1 | O=C(CCOCCn1nc(C(F)(F)F)c2c(=O)[nH]c(=O)[nH]c21)N1CCN(c2ncc(C(F)(F)F)cn2)CC1 [Compound 401]
≤ 0.1 | Cc1c(C(F)(F)F)c2c(=O)[nH]ncc2n1C(C)COCCC(=O)N1CCN(c2ncc(C(F)(F)F)cn2)CC1 (stereo not drawn) [Compound 474]
≤ 0.1 | CCC(COCCC(=O)N1CCN(c2ncc(C(F)(F)F)cn2)CC1)n1cc(C(F)(F)F)c2c(=O)[nH]ncc21 (single isomer, unassigned) [Compound 338]
≤ 0.1 | CC1CN(c2ccc(C#N)cn2)CCN1C(=O)CCOCCc1cccc2c(=O)[nH]ncc12 (single isomer, unassigned) [Compound 86]
≤ 0.1 | O=C(CCOCCn1nc(C(F)(F)F)c2c(=O)[nH]ncc21)N1CCN(c2ncc(C(F)(F)F)[nH]2)CC1 [Compound 488]

IC50 [µM] | SMILES
≤ 0.1 | CC(COCCC(=O)N1CCN(c2ncc(C(F)F)cn2)CC1)n1nc(C(F)(F)F)c2c(=O)[nH]ncc21 (stereo not drawn) [Compound 265]
≤ 0.1 | O=C(CCOCCc1cccc2c(=O)[nH]ncc12)N1CCN(c2nc3ccc(Cl)cc3o2)CC1 [Compound 205]
≤ 0.1 | O=C(CCOCCc1cccc2c(=O)[nH]ncc12)N1CCN(c2ccc(C(F)F)cn2)CC1 [Compound 97]
≤ 0.1 | O=C(CCOCCc1cccc2c(=O)[nH]ncc12)N1CCN(c2ccc(Cl)cn2)CC1 [Compound 96]
≤ 0.1 | O=C(CCOCCn1ncc2c(=O)[nH]ncc21)N1CCN(c2ccc(Cl)cn2)CC1 [Compound 133]
≤ 0.1 | CC1CN(C(=O)CCOCCN2C(=O)CCc3c2cn[nH]c3=O)CCN1c1ncc(C(F)(F)F)cn1 (stereo not drawn) [Compound 309]
≤ 0.1 | O=C(CCOCCc1cccc2c(=O)[nH]ncc12)N1CCN(c2nc3ccccc3[nH]2)CC1 [Compound 213]
≤ 0.1 | O=C(CCOCCc1cccc2c(=O)[nH]ncc12)N1CCN(c2ncc(C(F)(F)F)cn2)CC1 [Compound 4]
≤ 0.1 | N#Cc1ccc(N2CCN(C(=O)c3cccc(Cc4cccc5c(=O)[nH]ncc45)c3)CC2)nc1 [Compound 1, 6-(4-(3-((1-oxo-1,2-dihydrophthalazin-5-yl)methyl)benzoyl)piperazin-1-yl)nicotinonitrile]
0.1 to 1 | O=C(CCOCCc1cc(C(F)(F)F)cc2c(=O)[nH]ncc12)N1CCN(c2ncc(C(F)(F)F)cn2)CC1 [Compound 69]
≤ 0.1 | O=C(CCOCCn1nc(C(F)(F)F)c2c(=O)[nH]ncc21)N1CCN(c2ncc(C(F)(F)F)o2)CC1 [Compound 383]
≤ 0.1 | Cc1c(C)n(C(C)COCCC(=O)N2CCN(c3ncc(C(F)(F)F)cn3)CC2)c2cn[nH]c(=O)c12 (single isomer, unassigned) [Compound 365]
≤ 0.1 | CC(C)(C)c1cnc(N2CCN(C(=O)CCOCCc3cccc4c(=O)[nH]ncc34)CC2)nc1 [Compound 252]
≤ 0.1 | Cc1nn(C(C)COCCC(=O)N2CCN(c3ccc(C#N)cn3)CC2)c2cn[nH]c(=O)c12 (stereo not drawn) [Compound 243]
1 to 10 | N#Cc1ccc(N2CCN(C(=O)c3ccc(Cc4cccc5c(=O)[nH]ncc45)cc3)CC2)nc1 [Compound 32]
≤ 0.1 | O=C(CCOCCn1nc(C(F)(F)F)c2c(=O)[nH]ncc21)N1CCN(c2nc3cc(Cl)ccc3o2)CC1 [Compound 171]
≤ 0.1 | Cc1nn(C(C)COCCC(=O)N2CCN(c3ncc(Cl)cn3)CC2)c2cn[nH]c(=O)c12 (stereo not drawn) [Compound 336]
≤ 0.1 | CC(COCCC(=O)N1CCN(c2ccc(C#N)cn2)CC1)n1cc(C(F)(F)F)c2c(=O)[nH]ncc21 (single isomer, unassigned) [Compound 431]
≤ 0.1 | CC(COCCC(=O)N1CCN(c2ccc(C(C)(F)F)cn2)CC1)n1cc(C(F)(F)F)c2c(=O)[nH]ncc21 (single isomer, unassigned) [Compound 484]
≤ 0.1 | CC(COCCC(=O)N1CCN(c2ncc(Cl)cn2)CC1)n1cc(C(F)F)c2c(=O)[nH]ncc21 (stereo not drawn) [Compound 451]

IC50 [µM] | SMILES
≤ 0.1 | O=C(CCOCCc1cccc2c(=O)[nH]ncc12)N1CCN(c2nc3ccccc3s2)CC1 [Compound 141]
≤ 0.1 | CC(CCOCC(=O)N1CCN(c2ncc(C(F)(F)F)cn2)CC1)n1cc(C(F)(F)F)c2c(=O)[nH]ncc21 (stereo not drawn) [Compound 454]
≤ 0.1 | CC(COCCC(=O)N1CCN(c2ncc(C(C)(F)F)cn2)CC1)n1cc(C(F)(F)F)c2c(=O)[nH]ncc21 (single isomer, unassigned) [Compound 482]
≤ 0.1 | CC(COCCC(=O)N1CCN(c2ncc(Cl)cn2)CC1)n1nc(C(F)(F)F)c2c(=O)[nH]ncc21 (stereo not drawn) [Compound 186]
≤ 0.1 | Cc1nn(CCOCCC(=O)N2CCN(c3ncc(C(F)(F)F)cn3)C(C)C2)c2cn[nH]c(=O)c12 (single isomer, unassigned) [Compound 255]
1 to 10 | N#Cc1ccc(N2CCN(C(=O)CCOCCn3c(C(F)(F)F)nc4c(=O)[nH]ncc43)CC2)nc1 [Compound 272]
≤ 0.1 | CCC(OCCCC(=O)N1CCN(c2ncc(C(F)(F)F)cn2)CC1)c1cccc2c(=O)[nH]ncc12 (stereo not drawn) [Compound 209]
0.1 to 1 | O=C(COCCOc1cccc2c(=O)[nH]cnc12)N1CCN(c2ncc(C(F)(F)F)cn2)CC1 [Compound 15]
≤ 0.1 | O=C(CCOCCc1c(F)ccc2c(=O)[nH]ncc12)N1CCN(c2ncc(C(F)(F)F)cn2)CC1 [Compound 229]
≤ 0.1 | CC(COCCn1nc(C(F)(F)F)c2c(=O)[nH]ncc21)C(=O)N1CCN(c2ncc(C(F)(F)F)cn2)CC1 (stereo not drawn) [Compound 202]
1 to 10 | O=C(CCOCCn1ncc2c(=O)[nH]ncc21)N1CCN(c2ccc(C(F)(F)F)cc2)C(=O)C1 [Compound 337]
≤ 0.1 | CC(COCCC(=O)N1CCN(c2ncc(Cl)cn2)CC1)n1cc(C(F)F)c2c(=O)[nH]ncc21 (stereo not drawn) [Compound 450]
0.1 to 1 | CN(CCOCC(=O)N1CCN(c2ncc(C(F)(F)F)cn2)CC1)c1cccc2c(=O)[nH]ncc12 [Compound 43]
≤ 0.1 | CC(COCCC(=O)N1CCN(c2cc(C(F)(F)F)on2)CC1)n1nc(C(F)(F)F)c2c(=O)[nH]ncc21 (single isomer, unassigned) [Compound 429]
0.1 to 1 | CC(COCCC(=O)N1CCN(c2ccc(C#N)cn2)CC1)n1ncc2c(=O)[nH]ncc21 (single isomer, unassigned) [Compound 190]
≤ 0.1 | O=C(CCOCCn1nc(C(F)(F)F)c2c(=O)[nH]ncc21)N1CCN(c2nc3ccc(Cl)cc3o2)CC1 [Compound 191]
≤ 0.1 | CC1CN(C(=O)CCOCCn2cc(C(F)(F)F)c3c(=O)[nH]ncc32)CCN1c1ncc(C(F)(F)F)cn1 (stereo not drawn) [Compound 372]
0.1 to 1 | CC(COCCC(=O)N1CCN(c2ncccc2F)CC1)n1nc(C(F)(F)F)c2c(=O)[nH]ncc21 (single isomer, unassigned) [Compound 368]
0.1 to 1 | N#Cc1cc(CCOCCC(=O)N2CCN(c3ncc(C(F)(F)F)cn3)CC2)c2cn[nH]c(=O)c2c1 [Compound 112]

SMILES | IC50 [µM]
CC(OCCCC(=O)N1CCN(c2ncc(C(F)(F)F)cn2)CC1)c1cc(Cl)cc2c(=O)[nH]ncc12 (single isomer, unassigned) [Compound 175, 7-chloro-5-(1-(4-oxo-4-(4-(5-(trifluoromethyl)pyrimidin-2-yl)piperazin-1-yl)butoxy)ethyl)phthalazin-1(2H)-one] | ≤ 0.1
